Assay results taken from ChEMBL document CHEMBL1201862, “PubChem BioAssay data set” (2004).
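48-hour exposure; five concentrations; linearly interpolated endpoints. GI50 marks 50% less growth.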 Active and inactive are the calls of the source. No stated cut-off is given here; in the data, active = GI50 up to about 1.1 µM and inactive = higher.

What was measured:
Assay in all cases: DTP human tumour cell line panel, 48 h
CAKI-1 = test system: CAKI-1
NCI-H23 = test system: NCI-H23
SK-MEL-5 = test system: SK-MEL-5
UACC-257 = test system: UACC-257
NCI-H522 = test system: NCI-H522
LOX IMVI = test system: LOX IMVI
ACHN = test system: ACHN
NCI-H226 = test system: NCI-H226
RPMI-8226 = test system: RPMI-8226
Hs-578T = test system: Hs-578T
SF-539 = test system: SF-539
HOP-62 = test system: HOP-62
SF-295 = test system: SF-295
SF-268 = test system: SF-268
SW-620 = test system: SW-620
NCI/ADR-RES = test system: NCI/ADR-RES
M14 = test system: M14
COLO 205 = test system: COLO 205
MDA-MB-435 = test system: MDA-MB-435
HL-60 = test system: HL-60

Structure (SMILES)	GI50 (CAKI-1)	GI50 (NCI-H23)	GI50 (SK-MEL-5)	GI50 (UACC-257)	GI50 (NCI-H522)	GI50 (LOX IMVI)	GI50 (ACHN)	GI50 (NCI-H226)	GI50 (RPMI-8226)	GI50 (Hs-578T)	GI50 (SF-539)	GI50 (HOP-62)	GI50 (SF-295)	GI50 (SF-268)	GI50 (SW-620)	GI50 (NCI/ADR-RES)	GI50 (M14)	GI50 (COLO 205)	GI50 (MDA-MB-435)	GI50 (HL-60)
O=C1C(=C2SC(c3ccccc3)(c3ccccc3)c3ccccc32)C(=O)c2ccccc21	> 100 µM (inactive)	> 100 µM (inactive)	> 100 µM (inactive)	72.4 µM (inactive)	> 100 µM (inactive)	> 100 µM (inactive)	> 100 µM (inactive)	> 100 µM (inactive)	> 100 µM (inactive)	> 100 µM (inactive)	> 100 µM (inactive)	> 100 µM (inactive)	> 100 µM (inactive)	> 100 µM (inactive)	> 100 µM (inactive)	> 100 µM (inactive)	> 100 µM (inactive)	> 100 µM (inactive)	> 100 µM (inactive)	
CC(C)COC(c1ccc2c(c1)OCO2)C(C)Br (stereo unspecified)	30.3 µM (inactive)	26.2 µM (inactive)	18.7 µM (inactive)	23 µM (inactive)	18.7 µM (inactive)	17.4 µM (inactive)	34 µM (inactive)	26.4 µM (inactive)	21.6 µM (inactive)	25.9 µM (inactive)	23.3 µM (inactive)	24.9 µM (inactive)	20 µM (inactive)	25.2 µM (inactive)	28.9 µM (inactive)	28.4 µM (inactive)	21.1 µM (inactive)	22.6 µM (inactive)	21.7 µM (inactive)	
Cc1ccc(-c2nc3n(c2/C=N\N=C(N)N)CCS3)cc1	17.9 µM (inactive)	15.8 µM (inactive)	14.2 µM (inactive)	16.6 µM (inactive)	2.79 µM (inactive)	16.7 µM (inactive)	15 µM (inactive)		32.8 µM (inactive)	18.1 µM (inactive)	15.2 µM (inactive)	15 µM (inactive)	12.2 µM (inactive)	14.9 µM (inactive)	15.7 µM (inactive)	29.9 µM (inactive)		14.5 µM (inactive)	15.5 µM (inactive)	33.3 µM (inactive)
Cc1cc2c(c(S(=O)(=O)c3ccc(Cl)cc3[N+](=O)[O-])c1)NCCC2		45 µM (inactive)	25.9 µM (inactive)		18.2 µM (inactive)	5.57 µM (inactive)	18.3 µM (inactive)	> 100 µM (inactive)	58.5 µM (inactive)	> 100 µM (inactive)	> 100 µM (inactive)	50.9 µM (inactive)	53.2 µM (inactive)	99.3 µM (inactive)	> 100 µM (inactive)	37.6 µM (inactive)	41.9 µM (inactive)	> 100 µM (inactive)	42.9 µM (inactive)	> 10 µM (inactive)
CN(C)c1ccc(C(=C2C=CC(=[N+](C)C)C=C2)c2c(O)c(S(=O)(=O)[O-])cc3cc(S(=O)(=O)O)ccc23)cc1	> 100 µM (inactive)	> 100 µM (inactive)	> 100 µM (inactive)	> 100 µM (inactive)	> 100 µM (inactive)	> 100 µM (inactive)	> 100 µM (inactive)	> 100 µM (inactive)	> 100 µM (inactive)	> 100 µM (inactive)	> 100 µM (inactive)	> 100 µM (inactive)	> 100 µM (inactive)	> 100 µM (inactive)	> 100 µM (inactive)	> 100 µM (inactive)	> 100 µM (inactive)	> 100 µM (inactive)	> 100 µM (inactive)	
O=C1/C(=N\NC(=S)Nc2ccc(Cl)cc2)c2cc([N+](=O)[O-])ccc2N1CN1CCOCC1	3.52 µM (inactive)	2.08 µM (inactive)	4 µM (inactive)	13.2 µM (inactive)	6.79 µM (inactive)	10.1 µM (inactive)	4.73 µM (inactive)	4.81 µM (inactive)		7.03 µM (inactive)	11.3 µM (inactive)	< 0.01 µM (active)	4.97 µM (inactive)	4.39 µM (inactive)	4.37 µM (inactive)	2.2 µM (inactive)	10.1 µM (inactive)	13.2 µM (inactive)	6.38 µM (inactive)	0.502 µM (active)
CC(C)=CC[C@H]1C[C@]2(CC=C(C)C)C(=O)[C@@](CC=C(C)C)(C(=O)C(C(=O)c3ccccc3)=C2O)C1(C)C [6-EPI-CLUSIANONE]	4.44 µM (inactive)	7.67 µM (inactive)	4.53 µM (inactive)	4.71 µM (inactive)	5.38 µM (inactive)	3.46 µM (inactive)	4.88 µM (inactive)	14.1 µM (inactive)	3.37 µM (inactive)	14.3 µM (inactive)	11.6 µM (inactive)	6.87 µM (inactive)	4.27 µM (inactive)	10.2 µM (inactive)	6.28 µM (inactive)	5.33 µM (inactive)	6.65 µM (inactive)	3.94 µM (inactive)	5.4 µM (inactive)	
